# According to PubChem BioAssay AID1963974 (Molecular Pharmacology Branch, DTP, NCI, 2024):
# Test system: 648629-189-R-J1-PDC spheroids with HUVEC/MSC, viability
# Test: Anticancer human tumor 648629-189-R-J1-PDC patient-derived bladder carcinoma cell line growth inhibition [PI3K]
# Settings: for viability, T/C: stronger effect = lower value
# In short: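 Agents were dosed from a top concentration near clinical Cmax (otherwise 10 microM) in half-log decrements, alone or combined with PI3K inhibitors. The spheroids contain tumor cells plus endothelial (HUVEC) and MSC stroma; viability is measured.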
# [1] = curve of first compound, second compound 0.00316 µM
# [2] = curve of first compound, second compound 0.01 µM
# [3] = curve of first compound, second compound 0.0316 µM
# [4] = curve of first compound, second compound 0.1 µM
# [5] = curve of first compound, second compound 0.316 µM
# [6] = curve of first compound, second compound 1 µM
# 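Further: spheroids exposed to agents for seven days before reading.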
# 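Wherever viability, T/C is given: percent of vehicle control luminescence where 100% = DMSO treated spheroids.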
structure (smiles),measurement,setting,value
Cn1cnc2c(F)c(Nc3ccc(Br)cc3Cl)c(C(=O)NOCCO)cc21 + COc1c(OCCCN2CCOCC2)ccc2c3n(c(=NC(=O)c4cnc(N)nc4)nc12)CCN3,IC50,[1],> 3 µM
same,IC50,[2],> 3 µM
same,IC50,[3],> 3 µM
same,IC50,[4],> 3 µM
same,IC50,[5],< 0.00949 µM
same,IC50,[6],< 0.00949 µM
same,"viability, T/C","second compound 0.00316 µM, first compound 0.00949 µM",121%
same,"viability, T/C","second compound 0.00316 µM, first compound 0.03 µM",82.1%
same,"viability, T/C","second compound 0.00316 µM, first compound 0.0949 µM",101%
same,"viability, T/C","second compound 0.00316 µM, first compound 0.3 µM",83.6%
same,"viability, T/C","second compound 0.00316 µM, first compound 0.949 µM",96.6%
same,"viability, T/C","second compound 0.00316 µM, first compound 3 µM",92.3%
same,"viability, T/C","second compound 0.01 µM, first compound 0.00949 µM",103%
same,"viability, T/C","second compound 0.01 µM, first compound 0.03 µM",90.2%
same,"viability, T/C","second compound 0.01 µM, first compound 0.0949 µM",99.2%
same,"viability, T/C","second compound 0.01 µM, first compound 0.3 µM",89.3%
same,"viability, T/C","second compound 0.01 µM, first compound 0.949 µM",90.5%
same,"viability, T/C","second compound 0.01 µM, first compound 3 µM",92.7%
same,"viability, T/C","second compound 0.0316 µM, first compound 0.00949 µM",90%
same,"viability, T/C","second compound 0.0316 µM, first compound 0.03 µM",93.8%
same,"viability, T/C","second compound 0.0316 µM, first compound 0.0949 µM",102%
same,"viability, T/C","second compound 0.0316 µM, first compound 0.3 µM",87%
same,"viability, T/C","second compound 0.0316 µM, first compound 0.949 µM",80.8%
same,"viability, T/C","second compound 0.0316 µM, first compound 3 µM",78.6%
same,"viability, T/C","second compound 0.1 µM, first compound 0.00949 µM",62.4%
same,"viability, T/C","second compound 0.1 µM, first compound 0.03 µM",59.3%
same,"viability, T/C","second compound 0.1 µM, first compound 0.0949 µM",59%
same,"viability, T/C","second compound 0.1 µM, first compound 0.3 µM",73.5%
same,"viability, T/C","second compound 0.1 µM, first compound 0.949 µM",64.4%
same,"viability, T/C","second compound 0.1 µM, first compound 3 µM",59.4%
same,"viability, T/C","second compound 0.316 µM, first compound 0.00949 µM",20.6%
same,"viability, T/C","second compound 0.316 µM, first compound 0.03 µM",25.5%
same,"viability, T/C","second compound 0.316 µM, first compound 0.0949 µM",24.7%
same,"viability, T/C","second compound 0.316 µM, first compound 0.3 µM",28%
same,"viability, T/C","second compound 0.316 µM, first compound 0.949 µM",33.7%
same,"viability, T/C","second compound 0.316 µM, first compound 3 µM",32.3%
same,"viability, T/C","second compound 1 µM, first compound 0.00949 µM",3.08%
same,"viability, T/C","second compound 1 µM, first compound 0.03 µM",3.98%
same,"viability, T/C","second compound 1 µM, first compound 0.0949 µM",2.82%
same,"viability, T/C","second compound 1 µM, first compound 0.3 µM",3.55%
same,"viability, T/C","second compound 1 µM, first compound 0.949 µM",2.39%
same,"viability, T/C","second compound 1 µM, first compound 3 µM",1.24%
Cn1ncnc1[C@H]1c2n[nH]c(=O)c3cc(F)cc(c23)N[C@@H]1c1ccc(F)cc1,"viability, T/C",compound 0.000316 µM,105% [middle of 4 runs]
same,"viability, T/C",compound 0.001 µM,105% [middle of 4 runs]
same,"viability, T/C",compound 0.00316 µM,101% [middle of 4 runs]
same,"viability, T/C",compound 0.01 µM,92.9% [middle of 4 runs]
same,"viability, T/C",compound 0.0316 µM,73.1% [middle of 4 runs]
same,"viability, T/C",compound 0.1 µM,63.2% [middle of 4 runs]
same,IC50,curve of compound,> 0.1 µM
Cn1nccc1Nc1nccc(-c2ccn(C(CO)c3ccc(Cl)c(F)c3)c(=O)c2)n1 (stereo unspecified) + CC(Nc1ccc2c(c1)OCCn1cc(N3C(=O)OCC3C(F)F)nc1-2)C(N)=O,IC50,[1],> 10 µM
same,IC50,[2],> 10 µM
same,IC50,[3],> 10 µM
same,IC50,[4],> 10 µM
same,IC50,[5],> 10 µM
same,IC50,[6],> 10 µM
same,"viability, T/C","second compound 0.00316 µM, first compound 0.0316 µM",103%
same,"viability, T/C","second compound 0.00316 µM, first compound 0.1 µM",105%
same,"viability, T/C","second compound 0.00316 µM, first compound 0.316 µM",111%
same,"viability, T/C","second compound 0.00316 µM, first compound 1 µM",109%
same,"viability, T/C","second compound 0.00316 µM, first compound 3.16 µM",109%
same,"viability, T/C","second compound 0.00316 µM, first compound 10 µM",79.3%
same,"viability, T/C","second compound 0.01 µM, first compound 0.0316 µM",111%
same,"viability, T/C","second compound 0.01 µM, first compound 0.1 µM",93%
same,"viability, T/C","second compound 0.01 µM, first compound 0.316 µM",102%
same,"viability, T/C","second compound 0.01 µM, first compound 1 µM",108%
same,"viability, T/C","second compound 0.01 µM, first compound 3.16 µM",105%
same,"viability, T/C","second compound 0.01 µM, first compound 10 µM",81.2%
same,"viability, T/C","second compound 0.0316 µM, first compound 0.0316 µM",107%
same,"viability, T/C","second compound 0.0316 µM, first compound 0.1 µM",101%
same,"viability, T/C","second compound 0.0316 µM, first compound 0.316 µM",97.4%
same,"viability, T/C","second compound 0.0316 µM, first compound 1 µM",103%
same,"viability, T/C","second compound 0.0316 µM, first compound 3.16 µM",106%
same,"viability, T/C","second compound 0.0316 µM, first compound 10 µM",79.1%
same,"viability, T/C","second compound 0.1 µM, first compound 0.0316 µM",97.2%
same,"viability, T/C","second compound 0.1 µM, first compound 0.1 µM",97.5%
same,"viability, T/C","second compound 0.1 µM, first compound 0.316 µM",84.9%
same,"viability, T/C","second compound 0.1 µM, first compound 1 µM",103%
same,"viability, T/C","second compound 0.1 µM, first compound 3.16 µM",85.1%
same,"viability, T/C","second compound 0.1 µM, first compound 10 µM",73%
same,"viability, T/C","second compound 0.316 µM, first compound 0.0316 µM",82.1%
same,"viability, T/C","second compound 0.316 µM, first compound 0.1 µM",86%
same,"viability, T/C","second compound 0.316 µM, first compound 0.316 µM",82.7%
same,"viability, T/C","second compound 0.316 µM, first compound 1 µM",99.8%
same,"viability, T/C","second compound 0.316 µM, first compound 3.16 µM",78.3%
same,"viability, T/C","second compound 0.316 µM, first compound 10 µM",68.8%
same,"viability, T/C","second compound 1 µM, first compound 0.0316 µM",66.2%
same,"viability, T/C","second compound 1 µM, first compound 0.1 µM",67%
same,"viability, T/C","second compound 1 µM, first compound 0.316 µM",70.3%
same,"viability, T/C","second compound 1 µM, first compound 1 µM",76.3%
same,"viability, T/C","second compound 1 µM, first compound 3.16 µM",73%
same,"viability, T/C","second compound 1 µM, first compound 10 µM",62.3%
